Patent US20240366571A1, “MODULATORS OF SK4 POTASSIUM CHANNEL AND USES THEREOF” (Ramot at Tel-Aviv University Ltd., priority 2022, published 2024)
“Also recorded” adds a separate entry of the source. Where two headings read alike, the source gives them in different places.

Assays:
isolated rat hearts = experiment: Atrial fibrillation induction by burst pacing with carbachol in isolated rat hearts
Description: Atrial Fibrillation induction in Sprague-Dawley rats: For evaluation of Tram-34 and BA6b9 on atrial fibrillation (AF) induction, a custom-made quadripolar electrode was inserted for simultaneous recording and pacing on the HRA. To increase susceptibility for reentry and atrial tachyarrhythmia, the cholinergic agonist carbachol was used. First, baseline AERP was measured under normal physiological conditions, and the measurement was repeated upon exposure to 0.3 μM carbachol, 0.3 μM carbachol+10 μM Tram-34 or 0.3 μM carbachol+10 μM BA6b9. Then, for AF induction, burst pacing was applied to the HRA under increasing pacing thresholds (2×, 3×, 4×, 5×, and 6× threshold). This protocol included two consecutive 5 second bursts at a cycle length of 20 milliseconds for each threshold. This protocol was tested under […] conditions: normal physiological conditions, 0.3 μM carbachol, 0.3 μM carbachol+10 μM Tram-34, or 0.3 μM carbachol+10 μM BA6b9. To determine AF susceptibility under each condition, an AFIS (AF induction score) ranking system was created, relying on the level of threshold intensity when AF induction was successful. Lower AF induction threshold means higher AFIS. The ranking was as follows: induction at 2×-diastolic threshold received the highest score of 5, at 3× the received score was 4, at 4× the received score was 3, at 5× the received score was 2, at 6× the received score was 1, and if no induction occurred it scored zero. For AF sustainability quantification, sustained AF was determined as lasting ≥5 minutes. Non-sustained AF received a score of zero and sustained AF received a score of 1.

[1] = biological target: T1, WT SK4 channel co-transfected with CaM (Homo sapiens, UniProt O15554); experiment: Whole-cell patch-clamp of WT SK4 channel co-transfected with WT CaM or CaM mutants; type: cell-based
T1 construct: expressed in transfected cells; host or cells: CHO cells
Description: (§1) Constructs: For CHO cell transfection, the following were cloned: human SK1, rat SK2, human SK3, and rat calmodulin into the pcDNA3 vector, human SK4 into pEGFP-C1 vector, and PIP4,5-kinase into an IRES-dsRed plasmid. The mutations were introduced using the PCR-based QuikChange™ site-directed mutagenesis (Stratagene®) and were verified by full sequencing of the entire plasmid vector.
(§2) Whole-cell patch-clamp recording: Voltage-clamp recordings were performed using the whole-cell configuration of the patch-clamp technique. Signals were amplified using an […] patch-clamp amplifier (Molecular Devices), sampled at 5 kHz and filtered at 2.4 kHz via a four pole Bessel low pass filter. Data were acquired using pClamp™ 10.5 software in conjunction with an Axon™ DigiData® 1440A interface (Molecular Devices). The patch pipettes were pulled from borosilicate glass (Harvard Apparatus) with a resistance of 3-5 megaohms (MΩ). The intracellular pipette solution contained 130 mM KCl, 5 mM EGTA, 10 mM HEPES, pH 7.3 (adjusted with KOH), and CaCl2 calculated for a final concentration of 1 μM free-Ca^2+, by MAXCHELATOR (WEBMAXC STANDARD) software, with sucrose added to adjust osmolarity to 290 mosM. The external solution (310 mosM) contained 140 mM NaCl, 4 mM KCl, 1.8 mM CaCl2, 1.2 mM MgCl2, 11 mM glucose, and 5.5 mM HEPES adjusted with NaOH to pH 7.3. CHO cells were held at −90 millivolt (mV) and SK4 K^+ currents were activated using a voltage ramp protocol from −100 mV to +60 mV for 150 milliseconds. Electrophysiological data analysis was performed using the Clampfit program (pClamp™ 10.5; Molecular Devices).
To examine ex-vivo the interactions between BA6b9 and the simulated residues seen in FIG. 5B, residues that are in atomic proximity and are expected to interact with BA6b9 were mutated. Such mutated residues were, for example, R191 and H192 of linker S4-S5, M72 and M76 of the CaM linker as well as L19, E22, Y179, S181, A184, Q187 and R189, which are more distant from BA6b9.

human SK1 = biological target: T2, human SK1 (Homo sapiens, UniProt Q92952); experiment: Whole-cell patch-clamp of SK1 currents in CHO cells; type: cell-based; details: 20 μM
T2 construct: expressed in transfected cells; host or cells: CHO cells
Description: as §1
(§3) Cell Culture and Transfection: Chinese hamster ovary (CHO) cells were grown in Dulbecco's modified Eagle's medium supplemented with 2 millimolar (mM) glutamine, 10% fetal calf serum, and antibiotics. In brief, 40,000 cells seeded on poly-L-lysine-coated glass coverslips (13 millimeter (mm) in diameter) in a 24-multiwell plate were transfected with 0.5 microgram (μg) pEGFP-SK4/0.5 μg mutant SK4, 1.2 μg dsRed-PIP4,5-kinase or with 1 μg SK1/SK2/SK3 together with pIRES-CD8 (0.3 μg) as a marker for transfection. Transfection was performed using TransIT-LT1 Transfection Reagent (Mirus Bio) according to the manufacturer's protocol. For electrophysiology, transfected cells were visualized approximately 40 hours after transfection with a Zeiss Axiovert 35 inverted florescence microscope.
as §2, with “The external solution (310 mosM) contained 140 mM NaCl, 4 mM KCl, 1.8 mM CaCl2, 1.2 mM MgCl2, 11 mM glucose, and 5.5 mM HEPES adjusted with NaOH to pH 7.3. CHO cells were held at −90 millivolt (mV) and SK4 K^+ currents were activated using a voltage ramp protocol from −100 mV to +60 mV for 150 milliseconds. Electrophysiological data analysis was performed using the Clampfit program (pClamp™ 10.5; Molecular Devices).” left out

human SK3 = biological target: T3, human SK3 (Homo sapiens, UniProt Q9UGI6); experiment: Whole-cell patch-clamp of SK3 currents in CHO cells; type: cell-based; details: 20 μM
T3 construct: expressed in transfected cells; host or cells: CHO cells
Description: as §1
as §3, with “Transfection was performed using TransIT-LT1 Transfection Reagent (Mirus Bio) according to the manufacturer's protocol. For electrophysiology, transfected cells were visualized approximately 40 hours after transfection with a Zeiss Axiovert 35 inverted florescence microscope.” left out
(§4) Whole-cell patch-clamp recording: Voltage-clamp recordings were performed using the whole-cell configuration of the patch-clamp technique. […] The intracellular pipette solution contained 130 mM KCl, 5 mM EGTA, 10 mM HEPES, pH 7.3 (adjusted with KOH), and CaCl2 calculated for a final concentration of 1 μM free-Ca^2+, by MAXCHELATOR (WEBMAXC STANDARD) software, with sucrose added to adjust osmolarity to 290 mosM. […]

rat SK2 = biological target: T4, rat SK2 (Rattus norvegicus, UniProt P70604); experiment: Whole-cell patch-clamp of SK2 currents in CHO cells; type: cell-based; details: 20 μM
T4 construct: expressed in transfected cells; host or cells: CHO cells
Description: as §1
as §3, with “Transfection was performed using TransIT-LT1 Transfection Reagent (Mirus Bio) according to the manufacturer's protocol. For electrophysiology, transfected cells were visualized approximately 40 hours after transfection with a Zeiss Axiovert 35 inverted florescence microscope.” left out
as §4

modulation of WT SK4 co-transfected with CaM mutant M72A (representative trace) ([1]; 20 μM): not indicating modulation
inhibition at 20 µM ([1]; read-out: inhibition of WT SK4 co-transfected with CaM mutant M72A): 0%
inhibition at 20 µM ([1]; read-out: inhibition of WT SK4 co-transfected with CaM mutant M76A): 19%
inhibition at 20 µM ([1]; read-out: inhibition of WT SK4 co-transfected with WT CaM): 47%
SK1 activity in comparison with control (human SK1): 118%
SK1 drug-to-control current ratio (human SK1): 1.18
SK3 activity in comparison with control (human SK3): 95%
SK3 drug-to-control current ratio (human SK3): 0.95
SK2 activity in comparison with control (rat SK2): 134%
SK2 drug-to-control current ratio (rat SK2): 1.34
SMILES: CCCCCCCn1c(=O)oc2ccccc21 [BA6b9, 3-heptylbenzo[d]oxazol-2(3H)-one]
reduction of AFIS (isolated rat hearts; 10 μM + 0.3 μM carbachol vs carbachol alone): 48%
AFIS (AF induction score) (isolated rat hearts; 10 μM + 0.3 μM carbachol, 3.1 with carbachol alone): 1.6
sustained AF induction (isolated rat hearts; 10 μM + 0.3 μM carbachol, 100% with carbachol alone): 70%
heart preparations in which AF sustainability was prevented (isolated rat hearts; 10 μM, burst pacing): 30%
effect on SK1 currents (representative trace) (human SK1): nearly nullified effect; also recorded: did not lead to modulation
